PMC4680881 (Scientific Reports, 2015)
Several values for one entry are separate records, joined by “and”; a condition that tells them apart may be missing. Identical values can stand only once. Like-named read-outs stand apart in the source and are kept apart here.

Legend:
PrP^Sc deposits [1] = target: T1, PrP^Sc deposits (Mus musculus, UniProt P04925); conditions: 100 μM compound; for Fluorescence staining: brain sections from mock-infected mice; for Fluorescence staining of PrP^Sc deposits: brain slices from mBSE-infected mice
Aβ aggregates = conditions: cited from earlier work
amyloid plaques = conditions: cited from earlier work
rMoPrP aggregates [2] = target: T2, rMoPrP aggregates (Mus musculus, UniProt P04925); test: biochemical; format: binding
[3] = mouse, in vivo; cited from earlier work
PrP^Sc deposits [4] = target: T1, PrP^Sc deposits
rMoPrP aggregates [5] = target: T2, rMoPrP aggregates; test: biochemical; format: binding; remark: listed apart in the source
PrP^Sc deposits [6] = target: T1, PrP^Sc deposits; format: in vivo
PrP^Sc deposits [7] = target: T1, PrP^Sc deposits; format: in vivo; remark: listed apart in the source
Aβ (1–42) fibrils = conditions: cited from earlier work

T2 sequence (P04925 23-231 limits assumed): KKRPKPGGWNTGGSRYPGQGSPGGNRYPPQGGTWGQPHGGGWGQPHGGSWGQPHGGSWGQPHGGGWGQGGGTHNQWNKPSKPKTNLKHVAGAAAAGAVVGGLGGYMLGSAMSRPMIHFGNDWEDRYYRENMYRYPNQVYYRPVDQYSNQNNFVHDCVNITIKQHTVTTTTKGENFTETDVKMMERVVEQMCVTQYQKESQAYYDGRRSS
T1 sequence (P04925 23-230 limits assumed): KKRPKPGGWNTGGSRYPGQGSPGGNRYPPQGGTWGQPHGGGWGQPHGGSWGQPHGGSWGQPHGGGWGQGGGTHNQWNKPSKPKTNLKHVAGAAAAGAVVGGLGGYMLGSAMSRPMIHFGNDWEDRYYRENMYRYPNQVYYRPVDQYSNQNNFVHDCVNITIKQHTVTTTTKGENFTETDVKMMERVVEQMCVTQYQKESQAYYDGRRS

CN(C)c1ccc(C=C2Oc3ccc(I)cc3C2=O)cc1 [AR-NMe2, 2-[(4-Dimethylaminophenyl)methylene]-5-iodo-3(2H)-benzofuranone]
Fluorescence staining (PrP^Sc deposits [1]): Only background signals | Binding affinity for Aβ aggregates (Aβ aggregates): high binding affinities | Staining of amyloid plaques (amyloid plaques): clearly stained amyloid plaques

CN(C)c1ccc(-c2cc(=O)c3cc(I)ccc3o2)cc1 [FL-NMe2, 6-Iodo-4′-dimethyaminoflavone]
Fluorescence staining (PrP^Sc deposits [1]): Only background signals | Binding affinity for Aβ aggregates (Aβ aggregates): high binding affinities | Staining of amyloid plaques (amyloid plaques): clearly stained amyloid plaques

CN(C)c1ccc(/C=C/c2cc(=O)c3cc(I)ccc3o2)cc1 [SC-NMe2, (E)-6-Iodo-2-(4-(dimethylamino)styryl)-chromone]
Bmax (rMoPrP aggregates [2]): 36.3 pmol/nmol protein | Kd (rMoPrP aggregates [2]): 24.5 nM | Fluorescence staining (PrP^Sc deposits [1]): Only background signals | Fluorescence staining of PrP^Sc deposits (PrP^Sc deposits [1]): clearly labelled PrP^Sc deposits | Binding affinity for Aβ aggregates (Aβ aggregates): high binding affinities | Staining of amyloid plaques (amyloid plaques): clearly stained amyloid plaques | Brain uptake and washout [3]: low brain uptake and slow washout

CNc1ccc(C=Cc2cc(=O)c3cc([125I])ccc3o2)cc1 [[^125I]SC-NHMe]
In vitro autoradiography, distribution of radioactivity (PrP^Sc deposits [4]; brain sections of mock-infected mice): homogeneous distribution of radioactivity | In vitro autoradiography, signal in PrP^Sc deposit region (PrP^Sc deposits [4]; mBSE-infected mice, right corpus callosum region): high level of background and no significant accumulation of prion deposits

CN(C)c1ccc(/C=C/c2cc(=O)c3cc([125I])ccc3o2)cc1 [[^125I]SC-NMe2]
fold higher binding affinity compared with [125I]AR-NMe2 (rMoPrP aggregates [2]): 3.5 fold | Kd (rMoPrP aggregates [2]): 24.5 nM and 36.7 nM

O=c1cc(/C=C/c2ccc(O)cc2)oc2ccc(I)cc12 [SC-OH, (E)-6-Iodo-2-(4-hydroxylstyryl)-chromone]
Ki (rMoPrP aggregates [5]): 35 ± 3.72 nM

Nc1ccc(/C=C/c2cc(=O)c3cc(I)ccc3o2)cc1 [SC-NH2, (E)-6-Iodo-2-(4-aminostyryl)-chromone]
Ki (rMoPrP aggregates [5]): 58.7 ± 5.93 nM | fold lower binding affinity than SC-OMe (rMoPrP aggregates [5]): 2.8 fold

CN(C)c1ccc(/C=C/C(=O)c2ccc([125I])cc2)cc1 [[^125I]CL-NMe2]
Bmax (rMoPrP aggregates [2]): 16.7 pmol/nmol protein | Kd (rMoPrP aggregates [2]): 246 nM and 224 nM

COc1ccc(/C=C/c2cc(=O)c3cc([123I])ccc3o2)cc1 [[^123I]SC-OMe]
%SUV (PrP^Sc deposits [6]; early period (15–48 min), PBS-injected ipsilateral hemisphere of mock-infected mice): 13.4 %SUV | %SUV (PrP^Sc deposits [6]; early period (15–48 min), PrP^Sc-positive upper right hemisphere of mBSE-infected mouse): 46.5 %SUV | %SUV (PrP^Sc deposits [6]; early period (15–48 min), contralateral site of mBSE-infected mice): 23.3 %SUV | %SUV (PrP^Sc deposits [6]; late period (50–85 min), contralateral site of mBSE-infected mice): 3.7 %SUV | %SUV (PrP^Sc deposits [6]; late period (50–85 min), ipsilateral site of mock-infected mice): 3.5 %SUV | %SUV (PrP^Sc deposits [6]; late period (50–85 min), right hemisphere of mBSE-infected mice): 7.5 %SUV | Ex vivo autoradiography, accumulation in PrP^Sc-positive regions (PrP^Sc deposits [7]; mBSE-infected mice): significant [^123I]SC-OMe accumulation | Ex vivo autoradiography, accumulation in contralateral site (PrP^Sc deposits [7]; mBSE-infected mice): no significant accumulation | Ex vivo autoradiography, binding in mock-infected mouse brain (PrP^Sc deposits [7]; mock-infected mice): low signals

COc1ccc(/C=C/c2cc(=O)c3cc(I)ccc3o2)cc1OC [SC-(OMe)2, (E)-6-Iodo-2-(3,4-dimethoxystyryl) chromone]
Ki (rMoPrP aggregates [5]): 26.6 ± 1.48 nM | Fluorescence staining (PrP^Sc deposits [1]): no significant signals | Fluorescence staining of PrP^Sc deposits (PrP^Sc deposits [1]): clear fluorescence images

CN(C)c1ccc(-c2cc(=O)c3cc([125I])ccc3o2)cc1 [[^125I]FL-NMe2]
Bmax (rMoPrP aggregates [2]): 11.2 pmol/nmol protein | Kd (rMoPrP aggregates [2]): 201 nM

CNc1ccc(/C=C/c2cc(=O)c3cc(I)ccc3o2)cc1 [SC-NHMe, (E)-6-Iodo-2-(4-(methylamino)styryl)-chromone]
Ki (rMoPrP aggregates [5]): 17 ± 5.41 nM | Fluorescence staining (PrP^Sc deposits [1]): no significant signals | Fluorescence staining of PrP^Sc deposits (PrP^Sc deposits [1]): clear fluorescence images

O=c1cc(/C=C/c2ccc(OCCO)cc2)oc2ccc(I)cc12 [SC-OEtOH, (E)-6-Iodo-2-(4-hydroxyethoxystyryl)-chromone]
Ki (rMoPrP aggregates [5]): 221 ± 46.7 nM

Ic1ccc2nc(-c3ccc(-c4ccn[nH]4)cc3)cn2c1 [^125I-DRM106]
Kd (Aβ (1–42) fibrils): 10.1 nM

[125I]c1ccc2nc(-c3ccc(-c4ccn[nH]4)cc3)cn2c1 [^125I-DRM106]
Bmax (Aβ (1–42) fibrils): 34.3 pmol/nmol

CN(C)c1ccc(/C=C/C(=O)c2ccc(I)cc2)cc1 [CL-NMe2, (E)-3-(4-(Dimethylamino)phenyl)-1-(4-iodophenyl) prop-2-en-1-one]
Fluorescence staining (PrP^Sc deposits [1]): Only background signals | Binding affinity for Aβ aggregates (Aβ aggregates): high binding affinities | Staining of amyloid plaques (amyloid plaques): clearly stained amyloid plaques

CN(C)c1ccc(/C=C2\Oc3ccc([125I])cc3C2=O)cc1 [[^125I]AR-NMe2]
Bmax (rMoPrP aggregates [2]): 34.9 pmol/nmol protein | Kd (rMoPrP aggregates [2]): 125 nM and 119 nM

COc1ccc(/C=C/c2cc(=O)c3cc(I)ccc3o2)cc1 [SC-OMe, (E)-6-Iodo-2-(4-methoxystyryl) chromone]
Ki (rMoPrP aggregates [5]): 20.8 ± 0.69 nM | Fluorescence staining (PrP^Sc deposits [1]): no significant signals | Fluorescence staining of PrP^Sc deposits (PrP^Sc deposits [1]): clear fluorescence images
